Laboratory results published in ChEMBL document CHEMBL1152604, “Design, synthesis and biological evaluation of tripeptide boronic acid proteasome inhibitors” (Bioorg Med Chem, 2009).
pIC50: −log10 of the molar value.

Key:
[1] = Inhibition of chymotrypsin-like activity of mouse liver 20S proteasome
[2] = Inhibition of trypsin-like activity of mouse liver 20S proteasome
[3] = Inhibition of peptidylglutamyl peptide-hydrolyzing activity of mouse liver 20S proteasome
U-266 = assay: Cytotoxicity against human U266 cells after 72 hrs by MTT assay; assay type: functional, cell-based; conditions: U-266, 72 h
BGC-823 = assay: Cytotoxicity against human BGC823 cells after 72 hrs by MTT assay; assay type: functional, cell-based; conditions: BGC-823, 72 h
HL-60 = assay: Cytotoxicity against human HL60 cells after 72 hrs by MTT assay; assay type: functional, cell-based; conditions: HL-60, 72 h
BXPC-3 = assay: Cytotoxicity against human BxPC3 cells after 72 hrs by MTT assay; assay type: functional, cell-based; conditions: BXPC-3, 72 h

SMILES	pIC50 [1]	pIC50 [2]	pIC50 [3]	pIC50 (U-266)	pIC50 (BGC-823)	pIC50 (HL-60)	pIC50 (BXPC-3)
CC(C)C[C@@H](NC(=O)[C@H](Cc1ccccc1)NC(=O)[C@H](Cc1ccc2ccccc2c1)NC(=O)c1cnccn1)B1O[C@@H]2[C@@H](C[C@H]3C[C@@H]2C3(C)C)O1	9.66	< 7.70	< 7.70				
CC(C)C[C@@H](NC(=O)[C@H](Cc1ccccc1)NC(=O)[C@H](Cc1ccccc1)NC(=O)c1cnccn1)B(O)O	9.26	< 7.70	7.96				
CC(C)C[C@@H](NC(=O)[C@H](Cc1ccccc1)NC(=O)[C@H](Cc1c[nH]c2ccccc12)NC(=O)c1cnccn1)B1O[C@@H]2[C@@H](C[C@H]3C[C@@H]2C3(C)C)O1	< 7.70	< 7.70	< 7.70				
CC(C)C[C@@H](NC(=O)[C@H](Cc1c[nH]c2ccccc12)NC(=O)[C@H](Cc1ccccc1)NC(=O)c1cnccn1)B(O)O	< 7.70	< 7.70	< 7.70				
CC(C)C[C@@H](NC(=O)[C@H](Cc1ccccc1)NC(=O)[C@H](Cc1c[nH]c2ccccc12)NC(=O)c1cnccn1)B(O)O	< 7.70	< 7.70	< 7.70				
CC(C)C[C@H](NC(=O)[C@H](Cc1ccccc1)NC(=O)c1cnccn1)B(O)O [BORTEZOMIB]	9.79	< 7.70	< 7.70				
CC(C)C[C@@H](NC(=O)[C@H](Cc1ccc2ccccc2c1)NC(=O)[C@H](Cc1ccccc1)NC(=O)c1cnccn1)B1O[C@@H]2[C@@H](C[C@H]3C[C@@H]2C3(C)C)O1	9.35	< 7.70	< 7.70				
CC(C)C[C@@H](NC(=O)[C@H](Cc1ccccc1)NC(=O)[C@H](Cc1ccc2ccccc2c1)NC(=O)c1cnccn1)B(O)O	9.38	< 7.70	8.35	7.28	5.55	8.00	7.50
CC(C)C[C@H](NC(=O)c1cnccn1)C(=O)N[C@@H](CC(C)C)C(=O)N[C@H](CC(C)C)B(O)O	< 7.70	< 7.70	< 7.70				
CC(C)C[C@H](NC(=O)[C@H](Cc1ccccc1)NC(=O)c1cnccn1)C(=O)N[C@H](CC(C)C)B1O[C@@H]2[C@@H](C[C@H]3C[C@@H]2C3(C)C)O1	9.54	< 7.70	8.56				
CC(C)C[C@@H](NC(=O)[C@H](Cc1ccccc1)NC(=O)[C@H](Cc1ccccc1)NC(=O)c1cnccn1)B1O[C@@H]2[C@@H](C[C@H]3C[C@@H]2C3(C)C)O1	9.40	< 7.70	8.08				
CC(C)C[C@@H](NC(=O)[C@H](Cc1ccc2ccccc2c1)NC(=O)[C@H](Cc1ccc2ccccc2c1)NC(=O)c1cnccn1)B1O[C@@H]2[C@@H](C[C@H]3C[C@@H]2C3(C)C)O1	9.31	< 7.70	< 7.70				
CC(C)C[C@H](NC(=O)[C@H](Cc1ccc2ccccc2c1)NC(=O)c1cnccn1)C(=O)N[C@H](CC(C)C)B1O[C@@H]2[C@@H](C[C@H]3C[C@@H]2C3(C)C)O1	9.46	< 7.70	7.85				
CC(C)C[C@@H](NC(=O)[C@H](Cc1ccc2ccccc2c1)NC(=O)[C@H](Cc1ccc2ccccc2c1)NC(=O)c1cnccn1)B(O)O	9.47	< 7.70	< 7.70	6.71	5.61	7.71	7.48
CC(C)C[C@@H](NC(=O)[C@H](Cc1ccccc1)NC(=O)[C@H](Cc1ccc(O)cc1)NC(=O)c1cnccn1)B1O[C@@H]2[C@@H](C[C@H]3C[C@@H]2C3(C)C)O1	9.53	< 7.70	8.32				
CC(C)C[C@@H](NC(=O)[C@H](Cc1c[nH]c2ccccc12)NC(=O)[C@H](Cc1ccccc1)NC(=O)c1cnccn1)B1O[C@@H]2[C@@H](C[C@H]3C[C@@H]2C3(C)C)O1	< 7.70	< 7.70	< 7.70				
CC(C)C[C@H](NC(=O)[C@H](Cc1ccccc1)NC(=O)c1cnccn1)C(=O)N[C@H](CC(C)C)B(O)O	9.76	< 7.70	8.25				
CC(C)C[C@H](NC(=O)c1cnccn1)C(=O)N[C@@H](Cc1ccc2ccccc2c1)C(=O)N[C@H](CC(C)C)B(O)O	10.10	< 7.70	8.44	8.00	6.22	8.34	7.67
CC(C)C[C@@H](NC(=O)[C@H](Cc1ccccc1)NC(=O)[C@H](Cc1ccc(O)cc1)NC(=O)c1cnccn1)B(O)O	9.58	< 7.70	8.60	7.18	5.61	6.35	6.59
CC(C)C[C@@H](NC(=O)[C@H](Cc1ccc(O)cc1)NC(=O)[C@H](Cc1ccccc1)NC(=O)c1cnccn1)B(O)O	9.40	< 7.70	8.40	6.60	5.29	6.26	6.35
CC(C)C[C@@H](NC(=O)C(Cc1ccc(O)cc1)NC(=O)[C@H](Cc1ccccc1)NC(=O)c1cnccn1)B1O[C@@H]2[C@@H](C[C@H]3C[C@@H]2C3(C)C)O1 (some centres undefined)	9.47	< 7.70	8.27				
CC(C)C[C@@H](NC(=O)[C@H](Cc1ccc2ccccc2c1)NC(=O)[C@H](Cc1ccccc1)NC(=O)c1cnccn1)B(O)O	9.95	< 7.70	8.42	7.80	5.98	8.13	7.54
CC(C)C[C@H](NC(=O)c1cnccn1)C(=O)N[C@@H](Cc1ccccc1)C(=O)N[C@H](CC(C)C)B(O)O	9.72	< 7.70	8.29				
CC(C)C[C@H](NC(=O)c1cnccn1)C(=O)N[C@@H](CC(C)C)C(=O)N[C@H](CC(C)C)B1O[C@@H]2[C@@H](C[C@H]3C[C@@H]2C3(C)C)O1	< 7.70	< 7.70	< 7.70				
CC(C)C[C@H](NC(=O)c1cnccn1)C(=O)N[C@@H](Cc1ccc2ccccc2c1)C(=O)N[C@H](CC(C)C)B1O[C@@H]2[C@@H](C[C@H]3C[C@@H]2C3(C)C)O1	9.43	< 7.70	8.41				
CC(C)C[C@H](NC(=O)c1cnccn1)C(=O)N[C@@H](Cc1ccccc1)C(=O)N[C@H](CC(C)C)B1O[C@@H]2[C@@H](C[C@H]3C[C@@H]2C3(C)C)O1	9.37	< 7.70	8.47				
CC(C)C[C@H](NC(=O)[C@H](Cc1ccc2ccccc2c1)NC(=O)c1cnccn1)C(=O)N[C@H](CC(C)C)B(O)O	9.66	< 7.70	7.89	6.92	5.76	7.82	7.36
